Reference: patent US10570179B2, “Substituted urea depsipeptide analogs as activators of the CLPP endopeptidase” (priority 2016, dated 2020)
Converted amounts (≈) assume the structure as drawn. Read-outs that look alike come from different tables or passages of the source. Numbered stars: 1 amine (or outer) side, 2 acyl side, 3 side chain; on linkers, the order of the positions; unused ones are H or OH. Bridge positions count the residues as written; N and C are the ends. Square brackets hold non-standard residues; d marks the D form. Peptide text beside a SMILES is read from it. * marks the point of attachment. X6 = O=C([C@@H]1CS(=O)(=O)CCN1[*:1])[*:2]; Morpholine(3S-CO) = O=C(O)[C@@H]1COCCN1; Phe(3-Me) = Cc1cccc(C[C@H](N)C(=O)O)c1; NH(4-Cl-2-F-phenyl) = Fc1cc(Cl)ccc1N*; Pro(4R-Me) = C[C@H]1CN[C@H](C(=O)O)C1; X1 = O=C([C@@H]1CSCCN1[*:1])[*:2]; Hyp = O=C(O)[C@@H]1C[C@@H](O)CN1; NH(4-Me-phenyl) = Cc1ccc(N*)cc1; aThr = C[C@H](O)[C@H](N)C(=O)O; X3 = c1cc2c(cc1N*)OCCO2; CO = O=C([*:1])[*:2]

What was measured:
S. aureus ΔClpP = test: Minimal inhibitory concentration, microbroth dilution; assay type: cell-based, Staphylococcus aureus; conditions: MIC; ClpP inactivated
Outline: (§1)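 Following CLSI M7-A7 microbroth dilution, twofold serial dilutions of compound (top final concentration 200 μM) were combined with an equal volume of broth inoculum at about 10^5 cfu/mL. Plates were incubated aerobically at 37 °C overnight, and the MIC was the lowest concentration preventing visible growth.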

E. faecails = test: as above; assay type: cell-based; conditions: Enterococcus faecalis
Outline: as §1

MRSA NRS70 = test: as above; assay type: cell-based; conditions: Staphylococcus aureus
Outline: as §1

S. aureus ATCC 29213 = test: as above; assay type: cell-based; conditions: Staphylococcus aureus
Outline: as §1

S. aureus USA 300 = test: as above; assay type: cell-based; conditions: Staphylococcus aureus
Outline: as §1

[1] = Plasma protein binding, rapid equilibrium dialysis; assay type: in vitro ADME, human; conditions: 10 μM
Description: (§2) This assay determines plasma protein binding of a drug/compound and free drug concentration in plasma using rapid equilibrium dialysis, which allow the aqueous component of plasma containing the free drug/compound through a dialysis membrane (MWCO˜8,000).
(§3) Solutions were prepared at 10 mM in DMSO. Dulbecco's phosphate buffered saline (DPBS; pH 7.4) was obtained from Invitrogen (Carlsbad, Calif.). Single-Use RED (rapid equilibrium dialysis) device was obtained from Thermo scientific (Rockford, Ill.). Human plasma was obtained from Innovative Research INC (Novi, Michigan, Ill).
(§4) Sample preparation for plasma protein binding was modified from Waters' method. (Waters et al. (2008) J. Pharm. Sci. 97(10): 4586-95). The Teflon base plate with the RED inserts (MWCO 8 K) were allowed to use without any pre-condition the membrane inserts. Human plasma was thawed and centrifuged at 1000 rpm for 2 min to remove any particulates. Each compound was prepared at 10 μM in human plasma. This was done by adding 1 μL, of drug solution (10 mM in DMSO) to 1000 μL, of human plasma (0.1% DMSO). Spiked plasma solutions (300 μL) were placed into the sample chamber (indicated by the red ring) and 500 μL, of DPBS into the adjacent chamber. The plate was sealed and incubated at 37° C. on an orbital shaker (100 rpm) for 4 hours. After incubation, the seal was removed from the RED plate and the volume of the insert confirmed—little to no volume change occurred. Aliquots (50 μL) were removed from each side of the insert and dispensed into a 96-well deep plate. An equal volume of blank plasma or DPBS was added to the required wells to create analytically identical sample matrices (matrix matching). To each sample 200 μL, of ACN containing 4 μg/mL warfarin IS was added. All of the plates were sealed and mixed well at 600 rpm for 10 min and were centrifuged at 4000 rpm for 20 min. The supernatants (120 μL) were transferred to analytical plates for analysis by LCMS. Conditions for Waters ACQUITY-UPLC-MS-UV system were described separately. The test compound concentrations were quantified in both buffer and plasma chambers via peak areas relative to the internal standard. The percentage of the test compound bound to plasma was calculated on following equations: % Free=(Concentration buffer chamber/concentration plasma chamber)×100% and % Bound=100%-% Free.

[2] = Plasma protein binding, rapid equilibrium dialysis; assay type: in vitro ADME, mouse
Description: as §2, §3, §4

[3] = read-out: Minimal Inhibitory Concentrations (μM) E. faecails, MIC
[4] = read-out: Minimal Inhibitory Concentrations (μM) MRSA NRS70, MIC
[5] = ATCC29213, read-out: Minimal Inhibitory Concentrations (μM) S. aureus ATCC 29213, MIC
[6] = USA300, read-out: Minimal Inhibitory Concentrations (μM) S. aureus USA 300, MIC
[7] = plasma binding, % Bound, human plasma
[8] = plasma binding, % Bound, mouse plasma
[9] = MIC, read-out: Minimal Inhibitory Concentrations (μM) E. faecails
[10] = MIC, read-out: Minimal Inhibitory Concentrations (μM) MRSA NRS70
[11] = ATCC29213, MIC, read-out: Minimal Inhibitory Concentrations (μM) S. aureus ATCC 29213
[12] = USA300, MIC, read-out: Minimal Inhibitory Concentrations (μM) S. aureus USA 300

| Compound | Minimal Inhibitory Concentrations (μM) S. aureus ΔClpP (S. aureus ΔClpP) [µM] | MIC (E. faecails; [3]) [µM] | MIC (MRSA NRS70; [4]) [µM] | MIC (S. aureus ATCC 29213; [5]) [µM] | MIC (S. aureus USA 300; [6]) [µM] | Human [1, 7] [%] | Mouse [2, 8] [%] | MIC (E. faecails; [9]) [µM] | MIC (MRSA NRS70; [10]) [µM] | MIC (S. aureus ATCC 29213; [11]) [µM] | MIC (S. aureus USA 300; [12]) [µM] | Human ([1]; human, 4 h, pH 7.4) [%] | Mouse ([2]; mouse, 4 h, 10 μM, pH 7.4) [%] |
| --- | --- | --- | --- | --- | --- | --- | --- | --- | --- | --- | --- | --- | --- |
| Cc1ccc(NC(=O)N[C@@H](Cc2cccc(C)c2)C(=O)N[C@H]2COC(=O)[C@@H]3C[C@H](C)CN3C(=O)[C@H](C)NC(=O)[C@@H]3CCCCN3C(=O)[C@@H]3CCCN3C2=O)cc1 (stereo in doubt) [Compound 43, (S)—N-((2S,6S,8AS,14AS,20S,23AS)-2,6-DIMETHYL-5,8,14,19,23-PENTAOXOOCTADECAHYDRO-1H,5H,14H,19H-PYRIDO[2,1-I]DIPYRROLO[2,1-C:2′,1′-L][1]OXA[4,7,10,13]TETRAAZACYCLOHEXADECIN-20-YL)-3-(M-TOLYL)-2-(3-(P-TOLYL)UREIDO)PROPANAMIDE] | >20 | 2.5 (≈ 1.93 µg/mL) | 2.5 (≈ 1.93 µg/mL) | 2.5 (≈ 1.93 µg/mL) | 2.5 (≈ 1.93 µg/mL) | 72.9 ± 1.4 | 61.7 ± 1.6 |  |  |  |  |  |  |
| Cc1cccc(C[C@H](NC(=O)Nc2ccc(Cl)cc2F)C(=O)N[C@@H]2C(=O)N3CCC[C@H]3C(=O)N3CCS(=O)(=O)C[C@H]3C(=O)N[C@@H](C)C(=O)N3C[C@H](C)C[C@H]3C(=O)O[C@H]2C)c1 [Compound 40, (S)-2-(3-(4-CHLORO-2-FLUOROPHENYL)UREIDO)-3-(M-TOLYL)-N-((6AS,12S,13S,15AS,17R,21S,23AR)-13,17,21-TRIMETHYL-2,2-DIOXIDO-6,11,15,20,23-PENTAOXOOCTADECAHYDRO-6H,11H,15H-DIPYRROLO[2,1-C:2′,1′-L][1,4]THIAZINO[3,4-I][1]OXA[4,7,10,13]TETRAAZACYCLOHEXADECIN-12-YL)PROPANAMIDE] ({NH(4-Cl-2-F-phenyl)-CO}-[Phe(3-Me)][aThr]P[X6]A[Pro(4R-Me)]; ester 2-C) | >20 |  |  |  |  |  |  | 0.625 (≈ 0.546 µg/mL) | 0.625 (≈ 0.546 µg/mL) | 1.25 (≈ 1.09 µg/mL) | 1.25 (≈ 1.09 µg/mL) | 98.5 ± 8.5 | 99.4 ± 9.4 |
| Cc1cccc(C[C@H](NC(=O)Nc2ccc3c(c2)OCCO3)C(=O)N[C@@H]2C(=O)N3C[C@H](O)C[C@H]3C(=O)N3CCOC[C@H]3C(=O)N[C@@H](C)C(=O)N3C[C@H](C)C[C@H]3C(=O)O[C@H]2C)c1 [Compound 27, (S)-2-(3-(2,3-DIHYDROBENZO[B][1,4]DIOXIN-6-YL)UREIDO)-N-((6AS,8R,12S,13S,15AS,17R,21S,23AS)-8-HYDROXY-13,17,21-TRIMETHYL-6,11,15,20,23-PENTAOXOOCTADECAHYDRO-6H,11H,15H-[1,4]OXAZINO[3,4-I]DIPYRROLO[2,1-C:2′,1′-L][1]OXA[4,7,10,13]TETRAAZACYCLOHEXADECIN-12-YL)-3-(M-TOLYL)PROPANAMIDE] ({X3-CO}-[Phe(3-Me)][aThr][Hyp][Morpholine(3S-CO)]A[Pro(4R-Me)]; ester 2-C) | >20 |  |  |  |  |  |  | 2.5 (≈ 2.12 µg/mL) | 10 (≈ 8.48 µg/mL) | 10 (≈ 8.48 µg/mL) | 20 (≈ 17 µg/mL) | 91.1 ± 1.1 | 93.2 ± 3.2 |
| Cc1ccc(NC(=O)N[C@@H](Cc2cccc(C)c2)C(=O)N[C@@H]2C(=O)N3C[C@H](O)C[C@H]3C(=O)N3CCSC[C@H]3C(=O)N[C@@H](C)C(=O)N3C[C@H](C)C[C@H]3C(=O)O[C@H]2C)cc1 [Compound 42, (S)—N-((6AS,8R,12S,13S,15AS,17R,21S,23AR)-8-HYDROXY-13,17,21-TRIMETHYL-6,11,15,20,23-PENTAOXOOCTADECAHYDRO-6H,11H,15H-DIPYRROLO[2,1-C:2′,1′-L][1,4]THIAZINO[3,4-I][1]OXA[4,7,10,13]TETRAAZACYCLOHEXADECIN-12-YL)-3-(M-TOLYL)-2-(3-(P-TOLYL)UREIDO)PROPANAMIDE] ({NH(4-Me-phenyl)-CO}-[Phe(3-Me)][aThr][Hyp][X1]A[Pro(4R-Me)]; ester 2-C) | >20 | 2.5 (≈ 2.05 µg/mL) | 1.25 (≈ 1.02 µg/mL) | 1.25 (≈ 1.02 µg/mL) | 2.5 (≈ 2.05 µg/mL) | 98.1 ± 8.1 | 97.4 ± 7.4 |  |  |  |  |  |  |
